According to ChEMBL document CHEMBL6087456 (J Med Chem, 2025):
Values after ≈ are worked out from the molar mass of the structure shown.

Key:
[1] = target: Dihydroorotate dehydrogenase (quinone), mitochondrial (Homo sapiens, UniProt Q02127); assay: Inhibition of C-terminal His6-tagged recombinant human DHODH (29 to 395 residues) N-terminally truncated soluble domain extracted from Escherichia coli phage resistant BL21-DE3 using CoQD/DHA/DCIP as substrates
Plasmodium falciparum = assay: Antiparasitic activity against asexual blood stage Plasmodium falciparum 3D7 incubated for 72 hrs by SYBR Green assay; assay type: functional, organism-based; settings: 3D7, 72 h
[2] = Kinetic solubility of compound at pH 6.5 measured after 30 mins by nephelometry; assay type: physicochemical; settings: buffer; for solubility kinetic at 0.5 h: pH 6.5, read-out: Kinetic_solubility; for Kinetic_solubility: pH 6.5, 0.5 h
[3] = Metabolic stability in human liver microsomes assessed as intrinsic clearance at 0.5 uM incubated for 60 mins in presence of NADPH by tandem quadrupole-Time of Flight MS; assay type: ADME, Microsome; settings: 1 h
[4] = Oral absorption in overnight-fasted male Sprague-Dawley rat at 3 mg/kg measured upto 72 hrs by LCMS analysis; assay type: ADME, organism-based; settings: in vivo
[5] = target: T1, Dihydroorotate dehydrogenase (quinone), mitochondrial (Plasmodium falciparum (isolate 3D7), UniProt Q08210); assay: Inhibition of N-terminal His6-tagged recombinant Plasmodium falciparum DHODH (158 to 569 residues) N-terminally truncated soluble domain extracted from Escherichia coli phage resistant BL21-DE3 using CoQD/DHA/DCIP as substrates
T1 sequence (Q08210 whole entry): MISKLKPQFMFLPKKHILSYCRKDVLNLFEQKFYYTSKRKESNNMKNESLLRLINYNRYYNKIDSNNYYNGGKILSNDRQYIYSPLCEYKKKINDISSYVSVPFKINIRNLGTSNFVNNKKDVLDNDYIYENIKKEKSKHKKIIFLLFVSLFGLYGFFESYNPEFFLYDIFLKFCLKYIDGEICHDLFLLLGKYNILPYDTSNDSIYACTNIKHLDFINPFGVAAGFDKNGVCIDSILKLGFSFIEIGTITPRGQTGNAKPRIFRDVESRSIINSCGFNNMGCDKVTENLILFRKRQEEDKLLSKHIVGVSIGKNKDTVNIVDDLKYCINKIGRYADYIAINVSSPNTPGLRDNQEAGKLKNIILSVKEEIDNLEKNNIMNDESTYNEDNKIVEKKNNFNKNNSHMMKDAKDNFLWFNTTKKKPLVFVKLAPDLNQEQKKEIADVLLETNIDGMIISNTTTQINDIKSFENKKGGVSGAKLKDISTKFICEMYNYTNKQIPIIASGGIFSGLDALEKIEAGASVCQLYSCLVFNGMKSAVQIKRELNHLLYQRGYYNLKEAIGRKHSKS

[6] = Partition coefficient, log D of compound at pH 7.4 measured after 24 hrs by LCMS analysis; assay type: physicochemical; settings: octanol/water, pH 7.4, 24 h
[7] = Ratio of drug concentration in Sprague-Dawley rat brain to plasma at 1 uM measured for 5 to 60 mins by LCMS analysis; assay type: ADME, cell-free; settings: time 5-60 min
[8] = Plasma protein binding in human measured for 6 hrs by rapid equilibrium dialysis; assay type: ADME, cell-free
[9] = Plasma protein binding in rat measured for 6 hrs by rapid equilibrium dialysis; assay type: ADME, cell-free
Albumin = Albumin (Homo sapiens, UniProt P02768); assay: Protein binding to albumin (unknown origin) in ALBUMAX medium; assay type: ADME; settings: read-out: PB (converted)
[10] = Half life in overnight-fasted male Sprague-Dawley rat at 3 mg/kg, po or 1 mg/kg, iv measured upto 72 hrs by LCMS analysis; assay type: ADME, organism-based; settings: in vivo
[11] = Protein binding in human hepatocytes; assay type: ADME, cell-based, Hepatocyte; settings: read-out: PB (converted)
[12] = Oral bioavailability in overnight-fasted male Sprague-Dawley rat at 3 mg/kg measured upto 72 hrs by LCMS analysis; assay type: ADME, organism-based; settings: in vivo

Chain of Dihydroorotate dehydrogenase (quinone), mitochondrial (Homo sapiens, UniProt Q02127) (Q02127 whole entry, the tested form may be a part): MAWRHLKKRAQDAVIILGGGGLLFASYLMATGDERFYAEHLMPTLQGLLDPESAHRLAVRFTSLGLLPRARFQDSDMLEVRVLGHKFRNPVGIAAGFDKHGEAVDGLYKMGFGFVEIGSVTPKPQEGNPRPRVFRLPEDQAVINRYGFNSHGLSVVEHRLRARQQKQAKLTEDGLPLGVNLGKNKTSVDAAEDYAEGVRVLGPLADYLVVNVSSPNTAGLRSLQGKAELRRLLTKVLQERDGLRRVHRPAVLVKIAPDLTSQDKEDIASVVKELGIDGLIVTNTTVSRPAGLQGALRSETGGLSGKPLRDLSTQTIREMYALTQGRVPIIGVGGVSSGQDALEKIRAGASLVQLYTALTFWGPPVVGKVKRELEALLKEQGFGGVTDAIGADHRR
Chain of Albumin (P02768 whole entry): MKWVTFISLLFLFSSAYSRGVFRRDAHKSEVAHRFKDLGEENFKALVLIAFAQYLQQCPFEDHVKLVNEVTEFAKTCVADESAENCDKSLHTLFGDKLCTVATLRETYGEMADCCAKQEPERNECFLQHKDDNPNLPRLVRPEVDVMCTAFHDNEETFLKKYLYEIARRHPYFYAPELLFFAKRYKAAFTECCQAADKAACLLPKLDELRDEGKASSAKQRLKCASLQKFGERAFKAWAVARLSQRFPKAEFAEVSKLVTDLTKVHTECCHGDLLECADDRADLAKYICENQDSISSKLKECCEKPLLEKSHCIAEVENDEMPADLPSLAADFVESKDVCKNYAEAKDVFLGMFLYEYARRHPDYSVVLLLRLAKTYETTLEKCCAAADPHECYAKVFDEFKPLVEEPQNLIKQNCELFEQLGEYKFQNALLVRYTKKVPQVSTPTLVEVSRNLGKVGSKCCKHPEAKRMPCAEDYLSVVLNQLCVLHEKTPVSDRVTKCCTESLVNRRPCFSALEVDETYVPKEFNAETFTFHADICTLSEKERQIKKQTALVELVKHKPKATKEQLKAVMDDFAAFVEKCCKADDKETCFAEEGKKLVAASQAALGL

## Cn1nc2c(=O)n(C3CC3)ccc2c1[C@](O)(c1ccc(C(F)(F)F)nc1)C1CC1
[1]
  IC50: > 30 µM
Plasmodium falciparum
  EC50: 7 nM
[2]
  solubility kinetic at 0.5 h: 20 µM (≈ 8.09 µg/mL)
[3]
  intrinsic clearance (CLint): < 3 µL/min/mg
[4]
  Fa at 72 h: 40%

## Cn1nc2c(=O)n(C3CC3)ccc2c1Cc1ccc(C(F)(F)F)c(C#N)c1
[5]
  IC50: 140 nM
[1]
  IC50: > 100 µM
Plasmodium falciparum
  EC50: 81 nM
[2]
  solubility kinetic at 0.5 h: 67 µM (≈ 24.9 µg/mL)
[3]
  intrinsic clearance (CLint): < 7 µL/min/mg

## CC[C@@](O)(c1ccc(F)c(Cl)c1)c1c2ccn(C3CC3)c(=O)c2nn1C
[5]
  IC50: 7 nM
[1]
  IC50: 0.7 µM
Plasmodium falciparum
  EC50: 1 nM
[2]
  solubility kinetic at 0.5 h: 40 µM (≈ 15 µg/mL)
[3]
  intrinsic clearance (CLint): 8.4 µL/min/mg

## CC[C@@](O)(c1ccc(C(F)(F)F)c(C#N)c1)c1c2ccn(C3CC3)c(=O)c2nn1C
[5]
  IC50: 19 nM
[1]
  IC50: 0.96 µM
Plasmodium falciparum
  EC50: 1 nM
[2]
  solubility kinetic at 0.5 h: 20 µM (≈ 8.33 µg/mL)
[3]
  intrinsic clearance (CLint): < 3 µL/min/mg

## CCn1cc(C2CC2)c2c(Cc3cnc(C(F)(F)F)c(OC)c3)n(C)nc2c1=O
[5]
  IC50: 57 nM
[1]
  IC50: > 100 µM
Plasmodium falciparum
  EC50: 17 nM
[2]
  solubility kinetic at 0.5 h: 60 µM (≈ 24.4 µg/mL)
[3]
  intrinsic clearance (CLint): 25 µL/min/mg

## CCn1cc(C)c2c([C@H](N)c3ccc(C(F)(F)F)nc3)n(C)nc2c1=O
[5]
  IC50: 280 nM
[1]
  IC50: > 100 µM
Plasmodium falciparum
  EC50: 70 nM
[2]
  Kinetic_solubility: > 320 µM
[3]
  intrinsic clearance (CLint): < 3 µL/min/mg
[6]
  logD: 1.82
[7]
  BPR: 1.1

## CCn1cc(Cl)c2c(Cc3ccc(N4CCCCC4)nc3)n(C)nc2c1=O
[5]
  IC50: 17 nM
[1]
  IC50: 5.4 µM
Plasmodium falciparum
  EC50: 62 nM
[2]
  solubility kinetic at 0.5 h: 40 µM (≈ 15.4 µg/mL)
[3]
  intrinsic clearance (CLint): 160 µL/min/mg

## CCn1ccc2c([C@](O)(c3cnc(C(F)(F)F)c(Cl)c3)C3CC3)n(C)nc2c1=O
[1]
  IC50: > 100 µM
Plasmodium falciparum
  EC50: 2 nM
[2]
  solubility kinetic at 0.5 h: 40 µM (≈ 17.1 µg/mL)
[3]
  intrinsic clearance (CLint): 3.2 µL/min/mg
[8]
  PPB: 70.4%
[9]
  PPB: 64%
[7]
  BPR: 0.84

## Cn1nc2c(=O)n(C3CC3)cc(C3CC3)c2c1Cc1ccc(C(F)(F)F)nc1
[5]
  IC50: 43 nM
[1]
  IC50: 17 µM
Plasmodium falciparum
  EC50: 32 nM
[2]
  solubility kinetic at 0.5 h: 65 µM (≈ 25.2 µg/mL)
[3]
  intrinsic clearance (CLint): < 7 µL/min/mg

## Cc1nn(C2CC2)c(=O)c2nn(C)c(Cc3ccc(C(F)(F)F)c(C#N)c3)c12
Albumin
  fraction unbound: 0.499
[10]
  t1/2: 31 h
[4]
  Fa at 72 h: 15%

## CCn1cc(Cl)c2c(Cc3ccc(N4CCOCC4)nc3)n(C)nc2c1=O
[5]
  IC50: 190 nM
[1]
  IC50: > 100 µM
Plasmodium falciparum
  EC50: 370 nM
[2]
  solubility kinetic at 0.5 h: 65 µM (≈ 25.2 µg/mL)
[3]
  intrinsic clearance (CLint): 15 µL/min/mg

## CCn1ccc2c([C@@](O)(CC)c3ccc(C(F)(F)F)nc3)n(C)nc2c1=O
Plasmodium falciparum
  EC50: 2 nM
[2]
  solubility kinetic at 0.5 h: 40 µM (≈ 15.2 µg/mL)
[3]
  intrinsic clearance (CLint): 3.6 µL/min/mg
[9]
  PPB: 75.4%
Albumin
  fraction unbound: 0.821
[10]
  t1/2: 3.4 h

## Cn1nc2c(=O)n(C3CC3)ncc2c1[C@](O)(c1ccc(C(F)(F)F)c(C#N)c1)C(F)(F)F
[5]
  IC50: 19 nM
[1]
  IC50: > 30 µM
Plasmodium falciparum
  EC50: 1 nM
[2]
  solubility kinetic at 0.5 h: 20 µM (≈ 9.15 µg/mL)
[3]
  intrinsic clearance (CLint): < 3 µL/min/mg

## CCn1ccc2c(Cc3ccc(C(F)(F)F)nc3)n(C)nc2c1=O
[5]
  IC50: 1500 nM
[1]
  IC50: > 30 µM
Plasmodium falciparum
  EC50: 580 nM
[2]
  Kinetic_solubility: > 300 µM
[3]
  intrinsic clearance (CLint): < 7 µL/min/mg

## Cn1nc2c(=O)n(C3CC3)ccc2c1[C@](O)(c1ccc(C(F)(F)F)c(C#N)c1)C1CC1
[5]
  IC50: 18 nM
[1]
  IC50: > 30 µM
Plasmodium falciparum
  EC50: 1 nM
[2]
  Kinetic_solubility: < 5 µM
[3]
  intrinsic clearance (CLint): < 3 µL/min/mg

## CCn1cc(C2CC2)c2c([C@H](N)c3ccc(C(F)(F)F)nc3)n(C)nc2c1=O
[5]
  IC50: 180 nM
[1]
  IC50: > 100 µM
Plasmodium falciparum
  EC50: 27 nM
[2]
  Kinetic_solubility: > 320 µM
[3]
  intrinsic clearance (CLint): 3.8 µL/min/mg

## Cn1nc2c(=O)n(C3CC3)cnc2c1[C@](O)(c1ccc(C(F)(F)F)c(Cl)c1)C(F)(F)F
[5]
  IC50: 5 nM
[1]
  IC50: 6.5 µM
Plasmodium falciparum
  EC50: 77000 nM
[2]
  solubility kinetic at 0.5 h: 20 µM (≈ 9.34 µg/mL)
[3]
  intrinsic clearance (CLint): < 3 µL/min/mg

## CCn1cc(Cl)c2c(Cc3ccc(C(F)(F)F)nc3)n(C)nc2c1=O
[1]
  IC50: 72 µM
Plasmodium falciparum
  EC50: 14 nM
[2]
  solubility kinetic at 0.5 h: 70 µM (≈ 26 µg/mL)
[3]
  intrinsic clearance (CLint): 14 µL/min/mg
Albumin
  fraction unbound: 0.558
[7]
  BPR: 0.72
[4]
  Fa at 72 h: 100%

## Cc1cn(C2CC2)c(=O)c2nn(C)c(Cc3ccc(C(F)(F)F)nc3)c12
[5]
  IC50: 89 nM
[1]
  IC50: 52 µM
Plasmodium falciparum
  EC50: 45 nM
[2]
  solubility kinetic at 0.5 h: 130 µM (≈ 47.1 µg/mL)
[3]
  intrinsic clearance (CLint): < 7 µL/min/mg

## CCn1cc(C2CC2)c2c(Cc3ccc(C(F)(F)F)c(C#N)c3)n(C)nc2c1=O
[5]
  IC50: 15 nM
[1]
  IC50: 11 µM
Plasmodium falciparum
  EC50: 4 nM
[2]
  solubility kinetic at 0.5 h: 15 µM (≈ 6.01 µg/mL)
[3]
  intrinsic clearance (CLint): 64 µL/min/mg

## Cn1nc2c(=O)n(C3CC3)ccc2c1[C@](O)(c1cnc(C(F)(F)F)c(Cl)c1)C1CC1
[1]
  IC50: > 30 µM
Plasmodium falciparum
  EC50: 3 nM
[2]
  solubility kinetic at 0.5 h: 12.5 µM (≈ 5.49 µg/mL)
[3]
  intrinsic clearance (CLint): < 3 µL/min/mg
[8]
  PPB: 95.8%
[9]
  PPB: 93%
Albumin
  fraction unbound: 0.289
[11]
  fraction unbound: 0.578
[10]
  t1/2: 19 h
[4]
  Fa at 72 h: 4.6%

## CC[C@@](N)(c1cnc(C(F)(F)F)c(Cl)c1)c1c2ccn(C3CC3)c(=O)c2nn1C
Plasmodium falciparum
  EC50: 3 nM
[2]
  Kinetic_solubility: > 100 µM
[3]
  intrinsic clearance (CLint): < 3 µL/min/mg
Albumin
  fraction unbound: 0.63
[11]
  fraction unbound: 0.574
[7]
  BPR: 0.73
[10]
  t1/2: 15 h
[12]
  F: 4%
[4]
  Fa at 72 h: 82%

## CCn1cc(C2CC2)c2c(CN3CCC(F)(F)C(C)(C)C3)n(C)nc2c1=O
[5]
  IC50: 21 nM
[1]
  IC50: > 30 µM
Plasmodium falciparum
  EC50: 15 nM
[2]
  solubility kinetic at 0.5 h: 12.5 µM (≈ 4.73 µg/mL)
[3]
  intrinsic clearance (CLint): 160 µL/min/mg

## CCn1cc(C)c2c(Cc3ccc(C(F)(F)F)nc3)n(C)nc2c1=O
[5]
  IC50: 70 nM
[1]
  IC50: > 100 µM
Plasmodium falciparum
  EC50: 44 nM
[2]
  Kinetic_solubility: > 280 µM
[3]
  intrinsic clearance (CLint): < 7 µL/min/mg

## CCn1cc(C2CC2)c2c(Cc3ccc(C(F)(F)F)c(F)c3)n(C)nc2c1=O
[5]
  IC50: 14 nM
[1]
  IC50: 14 µM
Plasmodium falciparum
  EC50: 8 nM
[2]
  solubility kinetic at 0.5 h: 16 µM (≈ 6.29 µg/mL)
[3]
  intrinsic clearance (CLint): 52 µL/min/mg
